# Article PMC11802874, “The hypolipidemic effect of MI-883, the combined CAR agonist/ PXR antagonist, in diet-induced hypercholesterolemia model” (Nature Communications, 2025)
# Several values for one entry are separate records, joined by “and”; a condition that tells them apart may be missing. Identical values can stand only once.
# Assays:
# [1] = Metabolic stability in human liver S9 fraction
# Description: (§1) Shimadzu HPLC system including vacuum degasser, gradient pumps, reverse phase HPLC column, column oven, and autosampler with an API 4000 QTRAP mass spectrometer (Applied Biosystems/MDS Sciex (AB Sciex) with Turbo V ion source and TurboIonspray interface were used. The reference compound midazolam, which is metabolized both by phase I and phase II enzymes, was used. The elimination constant (kel), half-life (t1/2), and intrinsic clearance (Clint) were determined[19] (Table S1).
# Supplementary Figure 1. […] Test compounds (1 μM, final DMSO concentration 1%) were incubated at 37 °C with shaking at 100 rpm. Four time points over 120 minutes have been analyzed. The reactions were stopped by adding 420 μL of acetonitrile-water mixture (90:10). Supernatants were analyzed by the HPLC system coupled with a tandem mass spectrometer. The percentage (in % of initial concertation) of the test compounds remaining after incubation in plasma and their half-lives (t1/2) were calculated. […] The stability of the compound was tested in human liver S9 fraction. Cofactors were used such as UDPGA (for glucuronidation), PAPS (for sulfation), and reduced glutathione (for conjugation of GSH). Compounds were tested in triplicate with or without NADPH. Propantheline and midazolam were used as unstable control compounds in the experiments. Data represent the means±S.D. from at least three independent samples.
# [2] = Metabolic stability in mouse liver S9 fraction; conditions: male, CD-1, mouse, s9
# Description: as §1
# HepaRG KO CAR cells = assay: RT-qPCR mRNA expression in HepaRG KO CAR cells; format: cell-based, human; conditions: Phenobarbital 500 μM, CITCO 1 μM, MI 883 1 μM; ctrl = 1
# Description: HepaRG cells from Biopredic (Rennes, France) were cultivated and differentiated on the 12-well plates. […] Several batches of HepaRG KO CAR (CAR Knockout HepaRG™ Cells, MTOX1012-1VL, RRID:CVCL_B6AA) and PXR Knockout HepaRG™ Cells, MTOX1011-1VL, RRID:CVCL_B6AS) cells have been obtained from Sigma-Aldrich/Merck (Darmstadt, Germany) and cultivated according to the provider’s protocols. […] Experiments with HepaRG KO PXR and HepaRG KO CAR cells have been performed in duplicates at least in two independent experiments.
# RT-qPCR was used to examine gene expression in 2D and 3D PHH, HepaRG cells, or in mouse liver or intestine (ileum) samples as we have described before[60]–[62].
# All qRT-qPCR experiments including Trizol reagent (Life Technologies) total RNA isolation, reverse-transcription using a random hexaprimer, and the MMLV Reverse Transcriptase Kit (ThermoFisher Scientific) we have described before^19. qPCR was performed using TaqMan Fast Advanced Master Mix with TaqMan probes (ThermoFisher Scientific). […] The delta-delta method was used for gene expression quantification normalized to at least two reference genes. Three technical replicates were used for each reaction considering the MIQE guidelines. Data are presented as fold induction to vehicle-treated cells/animals.
# CAR-LBD = biological target: T1, CAR-LBD (Homo sapiens, UniProt Q14994); assay: MARCoNI CAR-LBD coregulator interaction array; format: biochemical; conditions: 100 μM
# T1 construct: HIS-tagged CAR-LBD (ThermoFisher Sciences, Cat. No PV4836); purchased ThermoFisher PV4836
# Description: The reaction was performed in a fully automated microarray processing and fluorescent imaging platform (PamStation12) at 20 °C for 80 cycles (two cycles per minute). After removal of the unbound CAR-LBD receptor by washing each array with 25 µl Tris-buffered Saline (TBS) buffer, fluorescent images of the PamChip microarrays were obtained using the PamStation12, and then were analyzed for quantification of CAR binding using BioNavigator software (PamGene International B.V.). For data and statistical analysis, BioNavigator was used.
# Modulation index (MI) is the log10-transformed relative binding value, which is calculated by the compound’s binding value, relative to the vehicle control (DMSO) binding value.
# T1 sequence (Q14994 109-348 isoform Q14994-2 limits assumed): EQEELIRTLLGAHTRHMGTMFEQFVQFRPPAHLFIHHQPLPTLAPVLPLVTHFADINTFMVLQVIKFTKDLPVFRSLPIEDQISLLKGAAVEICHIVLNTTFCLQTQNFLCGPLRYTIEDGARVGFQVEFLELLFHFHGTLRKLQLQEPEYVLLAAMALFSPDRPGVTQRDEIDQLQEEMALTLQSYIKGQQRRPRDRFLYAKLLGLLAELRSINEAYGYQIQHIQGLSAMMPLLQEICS
compound,measurement,setting,value
"Cc1ncc2n1-c1ccc(Cl)cc1C(c1ccccc1F)=NC2 [Midazolam, midazolam]",half-life at 2 µM,"[1]; human, s9",6.3 ± 0.3 min
same,microsomal CLint at 2 µM,"[1]; human, s9",55 ± 2.5 µL/min/mg
same,"Stability in S9 fraction (human liver), % remaining","[1]; time 0 (min), 2 μM",100
same,"Stability in S9 fraction (human liver), % remaining",[1]; time 20,94
same,"Stability in S9 fraction (human liver), % remaining",[1]; time 40,53
same,"Stability in S9 fraction (human liver), % remaining",[1]; time 60,18
same,"Stability in S9 fraction (human liver), % remaining",[1]; time 120,1
same,half-life,[2],3.1 min
same,microsomal CLint,[2],113 µL/min/mg
CCC1(c2ccccc2)C(=O)NC(=O)NC1=O [Phenobarbital],"CYP2B6 mRNA, RT-qPCR, HepaRG KO CAR (Fig. 1f), replicates",HepaRG KO CAR cells,2.7 and 1.95 and 2.4
"Clc1ccccc1C(c1ccccc1)(c1ccccc1)n1ccnc1 [clotrimazole, reference compound]",CAR-coregulator interaction profile,CAR-LBD,releasing most of the coactivator proteins
